Experimental data as given in patent US8679461B2, “Use of hesperetin for enhancing the sweet taste” (Symrise AG, priority 2005, dated 2014).
Values joined by “and” are separate entries in the source; they are usually repeats but may differ in a detail not shown here. Equal values may be shown once.

Key:
[1] = test system: sweet impression of a 5% by weight sucrose-containing solution; assay: Enhancing the sweet impression of a sugar solution, rating by a group of experts (Application Example 1); format: in vivo; details: for total number of tasters against the number of tasters who found the test solution sweeter / % Enhancement of the sweet impression: 5% sucrose + 100 ppm substance against 5% sucrose solution; for % Enhancement of the sweet impression: calculated from mean ratings; for Sweet impression (1-10) b) with: 5% sucrose + 100 ppm substance, rating 0 [not sweet] to 10 [extremely sweet], mean ± standard deviation
Method: In order to quantify the enhancement of a sweet impression owing to the addition of hesperetin, the respective sweetness of a 5% by weight sucrose-containing solution and of samples which contained 5% sucrose and 100 ppm hesperetin (source: Sigma-Aldrich, Order.-No. H 4125, CA-No. 41001-90-5) or a quantity of comparative hydroxyflavanones naringenin, eriodictyol, homoeriodictyol or eriodictyol-7-methylether (cf. US 2002 188,019) was determined by a group of experts (rating0 [not sweet] to 10 [extremely sweet]). Evaluation took place as a calculation of the enhancement (in %) of the sweet impression from the mean values of the assessments of the sucrose solution or the sucrose and compound 2-containing solution.

[2] = test system: sweet impression of sucrose-containing solutions; assay: Sweet impression of a sugar-reduced test solution, rating by a group of experts (Application Example 2); format: in vivo
Method: In order to quantify the retention of a sweet impression when replacing a sucrose content with a small quantity of hesperetin, the respective sweetness of (a) a 6% by weight sucrose-containing solution against a 5% by weight sucrose-containing solution and (b) a 6% by weight sucrose-containing solution against a solution which contained 5% sucrose and a quantity of hesperetin (source: Sigma-Aldrich, Order No. H 4125, CA-No. 41001-90-5) was determined by a group of experts (rating 0 [not sweet] to 10 [extremely sweet]). Evaluation took place as a calculation of the enhancement (in %) of the sweet impression from the mean values of the assessments of the 6% or 5% sucrose-containing solution or 5% sucrose and 100 ppm hesperetin-containing solution.

[3] = test system: sweet taste; details: concentration of 200 ppm; cited from earlier work

Structure (SMILES)	total number of tasters against the number of tasters who found the test solution sweeter [1]	% Enhancement of the sweet impression [1]	Sweet impression (1-10) b) with [1]	further results
COc1cc(O)c2c(c1)OC(c1ccc(O)c(O)c1)CC2=O (stereo not drawn) [Eriodictyol-7-methylether]	18/13	+15.9%	5.7 ± 1.9	–
COc1ccc(C2CC(=O)c3c(O)cc(O)cc3O2)cc1O (stereo not drawn) [Hesperetin, 4′-methoxy-3′,5,7-trihydroxyflavanone]	16/14	+41%	7.1 ± 2.4	sweet-enhancing effect (in words) ([1]; in contrast to naringenin, homoeriodictyol, eriodictyol and eriodictyol-7-methylether, cf. Example 1): clear and significant sweet-enhancing effect; total number of tasters against the number of tasters who found the test solution sweeter ([2]; test (b): 5% sucrose + 100 ppm hesperetin against 6% sucrose): 15/12; % Enhancement of the sweet impression ([2]; test (b): 5% sucrose + 100 ppm hesperetin against 6% sucrose solution): +21%; Sweet impression (1-10) 5% sucrose + 100 ppm hesperetin ([2]; test (b), mean ± standard deviation): 7.9 ± 1.5; inherent taste (in words) [3]: very weak sweet taste
OC[C@H]1O[C@@](CO)(O[C@H]2O[C@H](CO)[C@@H](O)[C@H](O)[C@H]2O)[C@@H](O)[C@@H]1O [sucrose]	–	–	–	Sweet impression (1-10) 5% sucrose ([2]; 5% by weight sucrose solution, test (a), mean ± standard deviation): 5.0 ± 1.6; Sweet impression (1-10) 6% sucrose ([2]; 6% by weight sucrose solution, reference in tests (a) and (b), mean ± standard deviation): 6.5 ± 1.5 and 6.9 ± 1.6; total number of tasters against the number of tasters who found the test solution sweeter ([2]; test (a): 5% sucrose against 6% sucrose): 15/0; % Enhancement of the sweet impression ([2]; test (a): 5% sucrose solution against 6% sucrose solution): −30%
O=C1C[C@@H](c2ccc(O)cc2)Oc2cc(O)cc(O)c21 [Naringenin]	19/12	+7.5%	6.0 ± 1.7	–
COc1cc([C@@H]2CC(=O)c3c(O)cc(O)cc3O2)ccc1O [Homoeriodictyol]	19/13	+6.4%	6.1 ± 1.5	–
O=C1C[C@@H](c2ccc(O)c(O)c2)Oc2cc(O)cc(O)c21 [Eriodictyol]	12/2	−16.7%	5.4 ± 1.2	–
